The target of data set [1] is Kv11.1 (hERG) ion channel (Homo sapiens (Human), UniProt Q12809). Briefly: Kv11.1 (hERG) ion channel activity, whole cell patch clamp in HEK293. Format: cell-based. The settings on record: for Ki: heading: hERG Ki, HEK293 cells stably expressing hERG, patch clamp. As for the experimental part: Kv11.1 (hERG) Ion Channel Activity
In this assay, a potential in vitro effect of test compounds on the Kv11.1 (hERG) ion channel current is investigated which mediates the rapidly activating, delayed rectifier cardiac potassium current (IKr). The assay is performed with a stable Kv11.1 (hERG) transfected human embryonic kidney cell line (HEK293) by whole cell patch clamp technique carried out at room temperature.
The Kv11.1 (hERG) ion channel blocker quinidine is used as reference compound. The effects of the test compounds and quinidine are normalized to the corresponding vehicle control. The whole cell recordings are carried out with an automated patch clamp device Patchliner™, Nanion Technologies, Munich). Hereby the Patch Clamp measurements run on silicate-coated chips with a hole of a defined diameter. Solutions, cell suspension and compounds are applied by a Teflon-laminated pipette needle through microfluidic silicate-laminated channels. Commercial patch clamp amplifiers (EPC10, HEKA Elektronik Dr. Schulze GmbH, Germany) are used for the patch clamp recordings. HEK293 cells stably expressing the hERG gene are held at −80 mV. Steady-state inhibition of Kv11.1 (hERG) potassium current due to test/reference compound application is measured using a pulse pattern with fixed amplitudes: 51 ms/−80 mV, 500 ms/+40 mV, 500 ms/−40 mV, 200 ms/−80 mV. The hERG-specific voltage protocol is repeated at 10 s intervals. The leak current is subtracted by a P4 leak subtraction. Cells are resuspended in extracellular patch clamp solution (EC) and applied into the chip. After trapping the cell, the EC is exchanged by seal enhancer solution (SE) to improve the sealing procedure. When the whole cell configuration is attained, seal enhancer is washed out by the application of EC. The recording is started in EC for 1.5 min. Afterwards DMSO (vehicle control, 0.1% DMSO) is applied and the control current is measured for 3 min. Following control steady-state current, test compound is applied twice at the same concentration and the tail current is measured for 3.5 min each. For the determination of a concentration-relationship, the test compound is applied as a cumulative concentration-response curve and each concentration is measured for 5 min. The reference compound quinidine is treated in the same way. The effect on Kv11.1 (hERG) ion channel activity is judged from the tail current amplitude monitored at −40 mV (current of interest, COI). Results are calculated from the last recorded current traces. Changes in Kv11.1 (hERG) ion channel activity between control value, defined as 100% Kv11.1 (hERG) ion channel activity, application of test compound and application of quinidine is reported as percent change of control value of COI. An aliquot of test compound is collected for concentration verification during the recording. The sample is immediately measured by HPLC and the final compound concentration within the assay is calculated according to a calibration curve.

Data set [2] concerns phosphorylation of Chk1 (Ser 345) in HT29 colon adenocarcinoma cells. Briefly: pCHK1 cellular assay. Format: cell-based. The settings on record: Homo sapiens, HT-29, hydroxyurea 3 mM, 4 h. The method in brief: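 HT29 cells plated ≥20 h, then compound (1 nM–30 μM final) with hydroxyurea (3 mM final) added together for 4 h at 37 °C. After MeOH/Triton fixation-permeabilisation, anti-pChk1 immunostaining plus nuclear stain; nuclear pChk1 imaged by confocal high content reader, reported as % positive nuclei.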

The next data set concerns the target ATR/ATRIP (Homo sapiens (Human), UniProt Q13535). Briefly: ATR/ATRIP kinase assay (TR-FRET, p53 Ser15 phosphorylation). Type of data set: biochemical. The note with it: 0.5 μM ATP, 50 nM p53. The method in brief:
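Full-length human ATR/ATRIP co-expressed in mammalian cells (typically 0.3 nM) preincubated with compound 15 min at 22° C, then 50 nM cmyc-p53 and 0.5 μM ATP added for typically 25 min; HEPES pH 8.0 with Mg2+/Mn2+. p53 Ser15 phosphorylation read by HTRF (665/615 ratio); IC50 by nonlinear regression.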
(In general: TR-FRET usually uses a lanthanide donor and a delayed reading to cut background.)

The structures appear in SMILES notation.

Chain of Kv11.1 (hERG) ion channel (Q12809 whole entry): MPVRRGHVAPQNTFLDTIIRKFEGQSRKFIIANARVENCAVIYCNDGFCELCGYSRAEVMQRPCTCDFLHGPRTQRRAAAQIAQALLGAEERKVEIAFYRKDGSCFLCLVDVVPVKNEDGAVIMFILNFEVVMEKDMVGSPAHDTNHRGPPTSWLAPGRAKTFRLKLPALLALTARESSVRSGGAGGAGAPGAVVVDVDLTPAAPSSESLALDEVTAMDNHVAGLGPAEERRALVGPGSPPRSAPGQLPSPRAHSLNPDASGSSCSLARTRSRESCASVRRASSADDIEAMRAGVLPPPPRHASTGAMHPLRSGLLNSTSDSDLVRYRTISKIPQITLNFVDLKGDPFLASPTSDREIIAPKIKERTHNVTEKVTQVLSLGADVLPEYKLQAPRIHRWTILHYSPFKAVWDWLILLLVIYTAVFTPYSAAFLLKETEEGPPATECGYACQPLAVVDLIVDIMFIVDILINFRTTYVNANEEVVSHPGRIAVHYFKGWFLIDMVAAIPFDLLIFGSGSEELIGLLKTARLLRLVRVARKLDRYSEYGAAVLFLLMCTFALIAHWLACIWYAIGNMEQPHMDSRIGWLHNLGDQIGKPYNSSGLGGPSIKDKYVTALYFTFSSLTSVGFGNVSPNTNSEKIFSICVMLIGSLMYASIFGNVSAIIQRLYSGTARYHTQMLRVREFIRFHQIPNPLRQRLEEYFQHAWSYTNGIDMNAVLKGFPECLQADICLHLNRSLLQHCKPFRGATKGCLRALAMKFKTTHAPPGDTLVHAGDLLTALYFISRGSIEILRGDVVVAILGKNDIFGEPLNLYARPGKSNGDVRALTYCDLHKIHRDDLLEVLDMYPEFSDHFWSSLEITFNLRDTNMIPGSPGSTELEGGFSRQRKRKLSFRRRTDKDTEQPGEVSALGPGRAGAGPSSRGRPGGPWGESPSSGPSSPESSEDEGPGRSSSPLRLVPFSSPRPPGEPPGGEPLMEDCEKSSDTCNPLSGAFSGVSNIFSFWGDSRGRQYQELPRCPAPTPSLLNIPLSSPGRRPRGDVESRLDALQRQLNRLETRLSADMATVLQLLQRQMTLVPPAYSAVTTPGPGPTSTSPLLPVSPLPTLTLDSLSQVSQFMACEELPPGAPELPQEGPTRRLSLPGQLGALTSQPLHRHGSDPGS
Chain of ATR/ATRIP (Q13535 whole entry): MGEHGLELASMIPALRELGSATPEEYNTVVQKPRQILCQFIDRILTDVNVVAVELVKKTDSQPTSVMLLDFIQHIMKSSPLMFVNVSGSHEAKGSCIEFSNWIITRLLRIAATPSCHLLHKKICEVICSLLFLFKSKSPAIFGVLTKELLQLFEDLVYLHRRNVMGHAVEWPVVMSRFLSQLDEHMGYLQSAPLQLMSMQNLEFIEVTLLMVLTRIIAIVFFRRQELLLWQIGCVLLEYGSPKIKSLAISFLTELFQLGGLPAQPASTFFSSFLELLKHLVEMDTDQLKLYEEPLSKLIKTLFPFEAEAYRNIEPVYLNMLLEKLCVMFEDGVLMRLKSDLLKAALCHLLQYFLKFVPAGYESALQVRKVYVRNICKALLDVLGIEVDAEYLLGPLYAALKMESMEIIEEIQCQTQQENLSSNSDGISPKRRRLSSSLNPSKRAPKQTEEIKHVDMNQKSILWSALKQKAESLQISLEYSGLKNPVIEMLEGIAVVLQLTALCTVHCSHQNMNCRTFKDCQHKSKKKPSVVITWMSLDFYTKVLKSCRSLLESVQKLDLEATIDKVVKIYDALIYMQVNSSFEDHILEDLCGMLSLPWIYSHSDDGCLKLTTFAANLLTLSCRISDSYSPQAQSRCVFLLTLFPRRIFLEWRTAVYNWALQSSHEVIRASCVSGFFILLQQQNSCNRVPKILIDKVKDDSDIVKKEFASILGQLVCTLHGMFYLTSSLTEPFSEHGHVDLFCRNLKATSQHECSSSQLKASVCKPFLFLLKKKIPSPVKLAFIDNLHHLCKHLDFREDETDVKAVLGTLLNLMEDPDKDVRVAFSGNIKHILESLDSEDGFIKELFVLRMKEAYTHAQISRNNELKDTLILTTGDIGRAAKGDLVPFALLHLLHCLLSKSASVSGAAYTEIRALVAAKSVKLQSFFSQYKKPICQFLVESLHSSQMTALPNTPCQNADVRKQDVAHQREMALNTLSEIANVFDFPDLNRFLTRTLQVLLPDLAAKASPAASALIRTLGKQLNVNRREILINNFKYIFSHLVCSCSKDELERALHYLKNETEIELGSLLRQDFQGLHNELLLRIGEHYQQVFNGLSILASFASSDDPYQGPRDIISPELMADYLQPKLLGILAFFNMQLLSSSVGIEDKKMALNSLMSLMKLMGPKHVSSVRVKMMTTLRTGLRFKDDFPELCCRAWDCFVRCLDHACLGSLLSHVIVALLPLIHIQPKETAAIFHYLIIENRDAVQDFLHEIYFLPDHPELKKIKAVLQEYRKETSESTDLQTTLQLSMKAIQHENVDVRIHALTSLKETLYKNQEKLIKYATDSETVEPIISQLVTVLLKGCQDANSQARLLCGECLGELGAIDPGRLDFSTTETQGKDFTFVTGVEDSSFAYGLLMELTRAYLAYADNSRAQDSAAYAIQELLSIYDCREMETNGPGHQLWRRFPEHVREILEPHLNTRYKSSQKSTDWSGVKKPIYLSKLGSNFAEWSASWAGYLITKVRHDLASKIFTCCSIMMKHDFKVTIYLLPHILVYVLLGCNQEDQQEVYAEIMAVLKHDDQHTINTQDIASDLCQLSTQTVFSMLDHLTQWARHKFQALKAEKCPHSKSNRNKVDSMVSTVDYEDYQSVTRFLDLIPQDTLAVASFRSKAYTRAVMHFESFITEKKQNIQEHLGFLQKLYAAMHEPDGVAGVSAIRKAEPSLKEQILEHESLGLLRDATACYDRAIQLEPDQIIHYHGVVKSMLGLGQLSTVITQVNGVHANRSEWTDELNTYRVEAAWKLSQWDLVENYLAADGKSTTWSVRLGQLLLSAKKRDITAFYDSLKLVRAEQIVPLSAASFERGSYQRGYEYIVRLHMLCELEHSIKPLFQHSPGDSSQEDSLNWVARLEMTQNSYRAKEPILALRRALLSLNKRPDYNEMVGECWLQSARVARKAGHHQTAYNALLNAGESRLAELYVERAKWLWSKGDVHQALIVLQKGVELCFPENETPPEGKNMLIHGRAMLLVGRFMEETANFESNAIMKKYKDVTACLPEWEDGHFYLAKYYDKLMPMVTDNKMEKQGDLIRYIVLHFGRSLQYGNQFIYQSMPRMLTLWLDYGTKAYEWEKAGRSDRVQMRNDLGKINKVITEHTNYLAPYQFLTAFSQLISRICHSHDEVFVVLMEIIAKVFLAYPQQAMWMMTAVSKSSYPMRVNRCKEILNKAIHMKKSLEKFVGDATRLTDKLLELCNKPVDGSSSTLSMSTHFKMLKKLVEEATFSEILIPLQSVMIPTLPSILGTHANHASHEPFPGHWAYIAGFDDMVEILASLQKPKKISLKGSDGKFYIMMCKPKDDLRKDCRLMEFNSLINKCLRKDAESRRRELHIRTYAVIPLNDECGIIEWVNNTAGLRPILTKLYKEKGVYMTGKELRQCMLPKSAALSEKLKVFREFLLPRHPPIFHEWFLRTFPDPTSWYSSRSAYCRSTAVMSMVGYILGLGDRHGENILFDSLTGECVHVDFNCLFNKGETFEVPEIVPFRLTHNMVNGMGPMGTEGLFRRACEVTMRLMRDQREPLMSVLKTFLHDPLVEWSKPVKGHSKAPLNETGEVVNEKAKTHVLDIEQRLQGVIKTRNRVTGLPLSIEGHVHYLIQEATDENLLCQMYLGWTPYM
Chain of ATR/ATRIP (Q8WXE1 whole entry partner): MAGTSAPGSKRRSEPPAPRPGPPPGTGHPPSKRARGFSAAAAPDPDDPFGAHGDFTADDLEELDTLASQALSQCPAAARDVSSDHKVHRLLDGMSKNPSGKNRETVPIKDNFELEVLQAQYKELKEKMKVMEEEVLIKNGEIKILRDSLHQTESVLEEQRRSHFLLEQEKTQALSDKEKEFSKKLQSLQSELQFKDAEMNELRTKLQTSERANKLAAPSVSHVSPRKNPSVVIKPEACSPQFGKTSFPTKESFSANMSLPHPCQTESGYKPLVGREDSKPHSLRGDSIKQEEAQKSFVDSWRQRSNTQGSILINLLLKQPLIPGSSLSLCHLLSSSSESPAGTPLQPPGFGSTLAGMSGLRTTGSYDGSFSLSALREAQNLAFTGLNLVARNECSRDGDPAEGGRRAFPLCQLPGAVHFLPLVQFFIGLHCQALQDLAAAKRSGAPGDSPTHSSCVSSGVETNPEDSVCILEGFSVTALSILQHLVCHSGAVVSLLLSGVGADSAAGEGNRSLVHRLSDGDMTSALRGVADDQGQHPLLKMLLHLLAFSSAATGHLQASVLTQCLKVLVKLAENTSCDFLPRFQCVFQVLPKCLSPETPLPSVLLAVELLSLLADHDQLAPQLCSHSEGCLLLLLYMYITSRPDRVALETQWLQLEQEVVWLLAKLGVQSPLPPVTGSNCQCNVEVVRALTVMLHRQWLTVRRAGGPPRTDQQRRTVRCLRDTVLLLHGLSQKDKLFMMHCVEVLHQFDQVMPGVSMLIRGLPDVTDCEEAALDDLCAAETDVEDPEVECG

For the compound `Cc1ccc(-c2cc(N3CCOC[C@H]3C)nc3c(-c4cc[nH]n4)nn(C)c23)cn1` [Compound 1, 1-Methyl-5-((R)-3-methyl-morpholin-4-yl)-7-(6-methyl-pyridin-3-yl)-3-(1H-pyrazol-3-yl)-1H-pyrazolo[4,3-b]pyridine], in data set [1] (@ 30 μM), the “hERG % effect @ conc” value is reported as −28%. Further, the Ki in data set [1] was above 30000 nM. The IC50 in data set [2] is 10 to 100 nM; against ATR/ATRIP, 2.3 nM.
For `Cc1ccc(-c2cc(N3CCOC[C@H]3C)nc3c(-c4cc[nH]n4)n[nH]c23)cn1` [Compound 2, 5-((R)-3-Methyl-morpholin-4-yl)-7-(6-methyl-pyridin-3-yl)-3-(1H-pyrazol-3-yl)-1H-pyrazolo[4,3-b]pyridine], the “hERG % effect @ conc” value in data set [1] (@ 10 μM) is reported as −3%. The Ki in data set [1] was above 10000 nM. The IC50 in data set [2] is 10 to 100 nM; on ATR/ATRIP, 0.8 nM.
On to `Cc1ncccc1-c1cc(N2CCOC[C@H]2C)nc2c(-c3cc[nH]n3)nn(C)c12` [Compound 4, 1-Methyl-5-((R)-3-methyl-morpholin-4-yl)-7-(2-methyl-pyridin-3-yl)-3-(1H-pyrazol-3-yl)-1H-pyrazolo[4,3-b]pyridine], for which, in data set [1] (@ 10 μM), the “hERG % effect @ conc” value is on record as −12%. Also, the Ki in data set [1] is above 10000 nM. Also, the figures for the IC50 (in data set [2]; against ATR/ATRIP) were 10 to 100 nM and 0.8 nM, respectively.
On the same counts, the results for `C[C@@H]1COCCN1c1cc(-c2ccc([S+](C)[O-])cc2)c2c(n1)c(-c1cc[nH]n1)nn2C` (stereo partly drawn) [Compound 5, 7-(4-Methanesulfinyl-phenyl)-1-methyl-5-((R)-3-methyl-morpholin-4-yl)-3-(1H-pyrazol-3-yl)-1H-pyrazolo[4,3-b]pyridine] are −22%, above 10000 nM, 10 to 100 nM and 3.5 nM.
Take `C[C@@H]1COCCN1c1cc(-c2ccc(S(C)(=O)=O)cc2)c2c(n1)c(-c1cc[nH]n1)nn2C` [Compound 7, 7-(4-Methanesulfonyl-phenyl)-1-methyl-5-((R)-3-methyl-morpholin-4-yl)-3-(1H-pyrazol-3-yl)-1H-pyrazolo[4,3-b]pyridine]: the “hERG % effect @ conc” value in data set [1] (@ 10 μM) is listed as −16%. For the same compound, in data set [1], the Ki is above 10000 nM. Moreover, the IC50 in data set [2] is 10 to 100 nM; against ATR/ATRIP it was 2.3 nM.
Consider `Cc1nc([S+](C)[O-])ccc1-c1cc(N2CCOC[C@H]2C)nc2c(-c3cc[nH]n3)nn(C)c12` (stereo partly drawn) [Compound 8, 7-(6-Methanesulfinyl-2-methyl-pyridin-3-yl)-1-methyl-5-((R)-3-methyl-morpholin-4-yl)-3-(1H-pyrazol-3-yl)-1H-pyrazolo[4,3-b]pyridine], for which the “hERG % effect @ conc” value in data set [1] (@ 10 μM) was −6%. Moreover, the inhibition constant (Ki) in data set [1] is above 10000 nM. Also, the IC50 is below 10 nM in data set [2] and 2.1 nM at ATR/ATRIP.
On the same counts, the results for `Cc1nc(S(C)(=O)=O)ccc1-c1cc(N2CCOC[C@H]2C)nc2c(-c3cc[nH]n3)nn(C)c12` [Compound 11, (3R)-4-[7-(6-Methanesulfonyl-2-methylpyridin-3-yl)-1-methyl-3-(1H-pyrazol-3-yl)-1H-pyrazolo[4,3-b]pyridin-5-yl]-3-methylmorpholine] are −5%, above 10000 nM, 10 to 100 nM and 0.9 nM.
For the compound `C[C@@H]1COCCN1c1cc(-c2ccnc3[nH]ccc23)c2c(n1)c(-c1cc[nH]n1)nn2C` [Compound 15, 1-Methyl-5-((R)-3-methyl-morpholin-4-yl)-3-(1H-pyrazol-3-yl)-7-(1H-pyrrolo[2,3-b]pyridin-4-yl)-1H-pyrazolo[4,3-b]pyridine], the “hERG % effect @ conc” value in data set [1] (@ 10 μM) is −24%. The Ki in data set [1] is above 10000 nM. Moreover, the IC50 in data set [2] was 10 to 100 nM; at ATR/ATRIP it was 0.6 nM.
For `Cc1cc(S(C)(=O)=O)ncc1-c1cc(N2CCOC[C@H]2C)nc2c(-c3cc[nH]n3)nn(C)c12` [Compound 17, 7-(6-Methanesulfonyl-4-methyl-pyridin-3-yl)-1-methyl-5-((R)-3-methyl-morpholin-4-yl)-3-(1H-pyrazol-3-yl)-1H-pyrazolo[4,3-b]pyridine], in data set [1] (@ 10 μM), the “hERG % effect @ conc” value was found to be 5%. For the same compound, the Ki in data set [1] is above 10000 nM. The values for the IC50 (in data set [2]; on ATR/ATRIP) were 10 to 100 nM and 3.6 nM, respectively.
For the compound `CC(C)n1cc(-c2cc(N3CCOC[C@H]3C)nc3c(-c4cc[nH]n4)nn(C)c23)cn1` [Compound 18, 7-(1-Isopropyl-1H-pyrazol-4-yl)-1-methyl-5-((R)-3-methyl-morpholin-4-yl)-3-(1H-pyrazol-3-yl)-1H-pyrazolo[4,3-b]pyridine], the “hERG % effect @ conc” value in data set [1] (@ 10 μM) is −14%. The compound also came in with a Ki in data set [1] above 10000 nM. For the same compound, the IC50 in data set [2] was 100 to 1000 nM; against ATR/ATRIP, 6.2 nM.
For `Cc1nn(C)cc1-c1cc(N2CCOC[C@H]2C)nc2c(-c3cc[nH]n3)nn(C)c12` [Compound 19, 7-(1,3-Dimethyl-1H-pyrazol-4-yl)-1-methyl-5-((R)-3-methyl-morpholin-4-yl)-3-(1H-pyrazol-3-yl)-1H-pyrazolo[4,3-b]pyridine], in that order: −6%, above 10000 nM, 10 to 100 nM and 3.4 nM.
Regarding `C[C@@H]1COCCN1c1cc([C@H]2CCCOC2)c2c(n1)c(-c1ccn[nH]1)nn2C` [Compound 68, 1-Methyl-5-((R)-3-methyl-morpholin-4-yl)-3-(2H-pyrazol-3-yl)-7-(R)-tetrahydro-pyran-3-yl-1H-pyrazolo[4,3-b]pyridine], in data set [1] (@ 30 μM), the “hERG % effect @ conc” value was −35%. For the same compound, the inhibition constant Ki in data set [1] is above 30000 nM. The IC50 in data set [2] was 10 to 100 nM.
Take `C[C@@H]1COCCN1c1cc([C@@H]2CCCOC2)c2c(n1)c(-c1ccn[nH]1)nn2C` [Compound 69, 1-Methyl-5-((R)-3-methyl-morpholin-4-yl)-3-(2H-pyrazol-3-yl)-7-(S)-tetrahydro-pyran-3-yl-1H-pyrazolo[4,3-b]pyridine]: in data set [1] (@ 30 μM), the “hERG % effect @ conc” value is listed as −29%. This compound also registered a Ki in data set [1] above 30000 nM. This compound registered an IC50 in data set [2] of 10 to 100 nM.
For `C[C@@H]1COCCN1c1cc([C@@H]2CCOC2)c2c(n1)c(-c1ccn[nH]1)nn2C` [Compound 71, 1-Methyl-5-((R)-3-methyl-morpholin-4-yl)-3-(2H-pyrazol-3-yl)-7-(S)-tetrahydro-furan-3-yl-1H-pyrazolo[4,3-b]pyridine], the “hERG % effect @ conc” value in data set [1] (@ 10 μM) was −16%. The inhibitory constant (Ki) in data set [1] was above 10000 nM. This compound had a concentration for half-maximal inhibition (IC50) in data set [2] of 10 to 100 nM.
For the compound `C[C@@H]1COCCN1c1cc(-c2ccnn2C(F)F)c2c(n1)c(-c1ccn[nH]1)nn2C` [Compound 78, (3R)-4-{7-[1-(Difluoromethyl)-1H-pyrazol-5-yl]-1-methyl-3-(1H-pyrazol-5-yl)-1H-pyrazolo[4,3-b]pyridin-5-yl}-3-methylmorpholine], the “hERG % effect @ conc” value in data set [1] (@ 30 μM) was −12%. Moreover, the Ki in data set [1] is above 30000 nM. In data set [2], this compound yielded an IC50 of 10 to 100 nM.
For `Cc1ncncc1-c1cc(N2CCOC[C@H]2C)nc2c(-c3cc[nH]n3)nn(C)c12` [Compound 87, (3R)-3-Methyl-4-[1-methyl-7-(4-methylpyrimidin-5-yl)-3-(1H-pyrazol-3-yl)-1H-pyrazolo[4,3-b]pyridin-5-yl]morpholine], the IC50 is 10 to 100 nM in data set [2] and 0.4 nM on ATR/ATRIP.
For `CC(c1cc(N2CCOC[C@H]2C)nc2c(-c3cc[nH]n3)nn(C)c12)S(C)(=O)=O` (stereo partly drawn) [Compound 89, (3R)-4-[7-(1-Methanesulfonylethyl)-1-methyl-3-(1H-pyrazol-3-yl)-1H-pyrazolo[4,3-b]pyridin-5-yl]-3-methylmorpholine], in that order: 1000 to 10000 nM and 0.9 nM.

What is called Ki is the equilibrium dissociation constant of an inhibitor or competing ligand from its target. Low values mean tighter binding, high ones weaker binding. For orientation: IC50 means the concentration that gives 50% inhibition. Lower therefore signals greater potency in that assay.

These data come from patent US12371430B2, “5-morpholin-4-yl-pyrazolo[4,3-b]pyridine derivatives” (Merck Patent GmbH, priority 2018, dated 2025).
